According to US12139477B2, “Compounds, salts thereof and methods for treatment of diseases” (ACADIA PHARMACEUTICALS INC., priority 2017, dated 2024):

How the values were obtained:
hERG channel = target: T1, hERG channel (Homo sapiens, UniProt Q12809); test: hERG assay, whole cell recordings in CHO cells (AVIVA); assay type: cell-based; conditions: CHO cells stably expressing hERG, pH 7.4
T1 construct: host or cells: CHO cells, stably transfected
Method in brief: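 Whole-cell voltage clamp of CHO cells stably expressing hERG, held at −80 mV; steps to +20 mV for 5 s, then −50 mV for 5 s, with tail current measured against a −50 mV baseline, every 12 s. Compounds applied in 4 additions until steady state (max 12 min), vs 0.1% DMSO vehicle baseline.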

hCav1.2/β2/α2δ channels = hCav1.2/β2/α2δ channels (Homo sapiens, UniProt Q13936); test: CaV1.2 manual patch clamp, CHO cells (CR-CLE); assay type: cell-based; conditions: manual patch clamp, room temperature, read-out: CaV 1.2 IC50
Sequence of hCav1.2/β2/α2δ channels (Q13936 whole entry): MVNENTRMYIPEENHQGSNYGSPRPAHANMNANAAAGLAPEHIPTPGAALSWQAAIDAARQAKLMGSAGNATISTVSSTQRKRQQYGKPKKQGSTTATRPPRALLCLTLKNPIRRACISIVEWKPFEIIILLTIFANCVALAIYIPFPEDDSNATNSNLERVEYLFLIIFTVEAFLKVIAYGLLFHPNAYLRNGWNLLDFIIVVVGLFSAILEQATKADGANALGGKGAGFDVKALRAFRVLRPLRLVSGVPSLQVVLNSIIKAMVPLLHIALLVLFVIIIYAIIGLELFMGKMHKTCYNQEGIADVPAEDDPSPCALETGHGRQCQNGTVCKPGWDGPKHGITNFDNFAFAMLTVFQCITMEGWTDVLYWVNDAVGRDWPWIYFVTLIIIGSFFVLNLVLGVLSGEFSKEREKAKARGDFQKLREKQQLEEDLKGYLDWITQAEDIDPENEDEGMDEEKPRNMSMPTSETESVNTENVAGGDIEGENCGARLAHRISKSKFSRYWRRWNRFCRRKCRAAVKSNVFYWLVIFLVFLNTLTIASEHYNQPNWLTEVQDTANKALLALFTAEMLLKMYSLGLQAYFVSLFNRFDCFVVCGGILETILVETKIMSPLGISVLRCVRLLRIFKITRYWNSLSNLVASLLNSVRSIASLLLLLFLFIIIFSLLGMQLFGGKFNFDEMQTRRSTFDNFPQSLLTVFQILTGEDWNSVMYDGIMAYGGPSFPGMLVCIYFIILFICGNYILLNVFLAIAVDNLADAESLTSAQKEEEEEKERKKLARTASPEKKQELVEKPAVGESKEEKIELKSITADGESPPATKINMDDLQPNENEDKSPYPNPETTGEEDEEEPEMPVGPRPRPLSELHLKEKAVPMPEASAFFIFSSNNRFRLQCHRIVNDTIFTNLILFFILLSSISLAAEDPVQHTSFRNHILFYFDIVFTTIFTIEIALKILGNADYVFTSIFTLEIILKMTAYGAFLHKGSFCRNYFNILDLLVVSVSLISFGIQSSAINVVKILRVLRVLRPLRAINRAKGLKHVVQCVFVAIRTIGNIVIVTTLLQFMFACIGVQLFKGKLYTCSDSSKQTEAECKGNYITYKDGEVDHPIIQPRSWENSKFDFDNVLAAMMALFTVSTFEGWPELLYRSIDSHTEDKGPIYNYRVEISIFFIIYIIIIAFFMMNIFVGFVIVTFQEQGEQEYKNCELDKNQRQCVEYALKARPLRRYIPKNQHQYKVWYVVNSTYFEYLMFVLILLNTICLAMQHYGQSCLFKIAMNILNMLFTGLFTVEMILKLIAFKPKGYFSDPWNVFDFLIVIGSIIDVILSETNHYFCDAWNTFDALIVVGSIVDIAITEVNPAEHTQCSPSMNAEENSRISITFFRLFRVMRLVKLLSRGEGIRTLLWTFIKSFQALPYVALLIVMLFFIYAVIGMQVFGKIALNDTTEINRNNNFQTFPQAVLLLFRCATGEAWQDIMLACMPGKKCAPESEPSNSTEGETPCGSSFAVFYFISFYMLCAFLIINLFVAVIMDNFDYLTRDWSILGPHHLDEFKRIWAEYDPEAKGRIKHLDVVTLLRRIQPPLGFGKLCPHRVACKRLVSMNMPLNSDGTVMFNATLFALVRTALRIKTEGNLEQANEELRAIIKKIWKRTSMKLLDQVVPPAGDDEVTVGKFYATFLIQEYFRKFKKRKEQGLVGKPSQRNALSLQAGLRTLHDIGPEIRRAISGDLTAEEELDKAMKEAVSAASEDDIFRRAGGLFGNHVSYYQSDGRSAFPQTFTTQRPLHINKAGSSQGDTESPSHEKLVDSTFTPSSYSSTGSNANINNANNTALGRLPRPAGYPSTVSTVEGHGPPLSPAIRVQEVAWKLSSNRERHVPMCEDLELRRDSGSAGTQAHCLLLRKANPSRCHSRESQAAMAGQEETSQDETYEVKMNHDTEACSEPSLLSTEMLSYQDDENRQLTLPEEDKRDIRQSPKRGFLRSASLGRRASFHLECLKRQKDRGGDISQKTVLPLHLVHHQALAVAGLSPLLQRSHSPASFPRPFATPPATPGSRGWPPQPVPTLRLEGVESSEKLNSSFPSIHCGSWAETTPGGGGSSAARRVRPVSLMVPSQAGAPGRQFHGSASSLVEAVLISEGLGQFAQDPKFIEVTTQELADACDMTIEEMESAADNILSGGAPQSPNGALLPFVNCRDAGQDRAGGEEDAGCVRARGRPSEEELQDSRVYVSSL
Sequence of hCav1.2/β2/α2δ channels (Q08289 whole entry partner): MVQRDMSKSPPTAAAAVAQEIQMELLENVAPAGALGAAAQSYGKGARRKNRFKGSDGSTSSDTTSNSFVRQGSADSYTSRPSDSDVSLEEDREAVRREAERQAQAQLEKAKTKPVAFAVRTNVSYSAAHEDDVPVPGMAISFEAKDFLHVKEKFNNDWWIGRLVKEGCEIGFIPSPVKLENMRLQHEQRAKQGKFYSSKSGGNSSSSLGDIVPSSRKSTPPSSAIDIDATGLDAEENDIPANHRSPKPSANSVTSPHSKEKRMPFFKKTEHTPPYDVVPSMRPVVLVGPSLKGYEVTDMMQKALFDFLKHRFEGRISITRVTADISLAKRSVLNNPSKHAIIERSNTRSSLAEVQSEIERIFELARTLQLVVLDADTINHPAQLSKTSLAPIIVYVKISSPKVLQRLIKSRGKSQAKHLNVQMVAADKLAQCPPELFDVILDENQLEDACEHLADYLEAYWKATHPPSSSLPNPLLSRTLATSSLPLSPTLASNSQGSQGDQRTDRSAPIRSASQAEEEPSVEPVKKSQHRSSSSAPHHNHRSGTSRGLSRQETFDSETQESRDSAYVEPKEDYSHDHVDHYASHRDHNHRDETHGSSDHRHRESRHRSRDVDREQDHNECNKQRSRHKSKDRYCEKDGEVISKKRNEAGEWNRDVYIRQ
Sequence of hCav1.2/β2/α2δ channels (P54289 25-956 partner limits assumed): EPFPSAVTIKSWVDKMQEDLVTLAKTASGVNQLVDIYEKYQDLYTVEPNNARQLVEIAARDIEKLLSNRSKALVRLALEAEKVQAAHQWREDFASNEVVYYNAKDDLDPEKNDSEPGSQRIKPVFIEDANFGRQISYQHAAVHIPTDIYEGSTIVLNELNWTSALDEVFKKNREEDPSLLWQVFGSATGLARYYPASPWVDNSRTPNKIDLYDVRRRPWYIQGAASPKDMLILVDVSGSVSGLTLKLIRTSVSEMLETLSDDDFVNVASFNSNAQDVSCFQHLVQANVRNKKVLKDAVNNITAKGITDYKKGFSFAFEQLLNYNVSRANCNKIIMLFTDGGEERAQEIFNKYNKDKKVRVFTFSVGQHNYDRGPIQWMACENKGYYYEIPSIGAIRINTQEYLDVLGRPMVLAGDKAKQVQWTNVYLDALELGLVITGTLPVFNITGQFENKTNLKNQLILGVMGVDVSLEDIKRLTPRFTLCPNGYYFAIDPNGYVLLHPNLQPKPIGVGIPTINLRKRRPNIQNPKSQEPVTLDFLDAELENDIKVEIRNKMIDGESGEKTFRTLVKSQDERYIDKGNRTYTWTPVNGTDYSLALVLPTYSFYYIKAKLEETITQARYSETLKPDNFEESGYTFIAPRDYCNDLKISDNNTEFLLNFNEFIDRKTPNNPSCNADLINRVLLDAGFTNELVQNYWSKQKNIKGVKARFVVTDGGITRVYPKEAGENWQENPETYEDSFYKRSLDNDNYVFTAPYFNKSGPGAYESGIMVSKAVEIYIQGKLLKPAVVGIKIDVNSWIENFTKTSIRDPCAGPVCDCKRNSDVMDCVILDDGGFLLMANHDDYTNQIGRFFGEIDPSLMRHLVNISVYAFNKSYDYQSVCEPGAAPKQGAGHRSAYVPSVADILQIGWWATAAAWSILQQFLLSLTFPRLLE
Sequence of hCav1.2/β2/α2δ channels (P54289 957-1103 partner limits assumed): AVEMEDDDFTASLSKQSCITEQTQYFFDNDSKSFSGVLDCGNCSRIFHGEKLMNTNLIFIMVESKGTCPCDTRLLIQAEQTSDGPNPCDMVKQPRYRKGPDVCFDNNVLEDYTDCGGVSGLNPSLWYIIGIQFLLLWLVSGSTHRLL
From the text: Stocks were maintained in cryogenic storage. […] Each culture dish was identified by a notation of channel name, passage number, and date.
Rationale for Selection of Ion Channel and Expression Systems: Reduction of ICa,L is associated with action potential shortening in atrial fibrillation (Van Wagoner, et al., Circ Res 85:428-436 (1999)) while augmentation of ICa,L current may produce action potential prolongation (Ahmmed, et al., Circ Res 86:558-570 (2000)) and early after depolarizations (January, et al., Circ Res 62:563-571 (1988)). ICa.L is produced by the combination of calcium channel subunits encoded by CACNA1C (α1-subunit), CACNB2 (β2-subunit) and CACNA2D1 (α2δ-subunit) cDNAs.
• Organism: Cricetulus griseus • Tissue: Ovary; transfected with human CACNA1C • (α1-subunit), CACNB2 (β2-subunit), and • CACNA2D1 (α2δ-subunit) cDNAs • Morphology: Epithelial • Age/Stage: Adult • Source Strain: ATCC, Manassas, VA • Source Substrain: CR-CLE
CHO Cell Culture Procedures: CHO cells were stably co-transfected with human CACNA1C (α1-subunit), CACNB2 (β2-subunit), and CACNA2D1 (α2δ-subunit) cDNAs. Stable transfectants were selected by coexpression of the cDNAs with antibiotic resistance genes for blasticidin, hygromycin, G418, and zeocin. Selection pressure was maintained by including these antibiotics in the culture medium. Cells were cultured in Ham's F12 Medium supplemented with 10% fetal bovine serum, penicillin-streptomycin (100 units/mL), blasticidin (10 μg/mL), zeocin (400 μg/mL), G418 (250 μg/mL) and hygromycin (250 μg/mL). To avoid Ca^2+-induced toxicity, verapamil (3 μmol/L) was added to the cultured cells.
hCav1.2/β2/α2δ-CHO is a tetracycline-inducible cell line. To induce expression, tetracycline at a final concentration of 1 μg/mL was added to media lacking the selection antibiotics. Currents were recorded greater than 16 hours post-induction.
Treatment Groups: All experiments were performed at room temperature. Each cell acted as its own control.
Each concentration was tested in at least three cells (n≥3).
Positive Control Group: The positive control article nifedipine (Sigma-Aldrich) was tested in two cells (n=2) at 0.1 μM. Previous results have shown that nifedipine at 0.1 μM inhibits hCav1.2 current by approximately 90%.
Electrophysiological Procedures: Cells were superfused with vehicle control solution. Micropipette solution for whole cell patch clamp recordings was composed of (mM): Cs-methanesulfonate (MES), 130; TEA-Cl, 20, MgCl2, 1; EGTA, 10; Mg-ATP, 4; Tris-GTP, 0.3, phosphocreatine di-(Tris) salt, 14, creatine phosphokinase, 50 U/mL, and HEPES, 10; pH adjusted to 7.2 with N-methyl-D-glucamine or CsOH. Micropipette solution was prepared in batches, aliquoted, stored frozen, and a fresh aliquot thawed each day. […] Before digitization, current records were low-pass filtered at one-fifth of the sampling frequency.
Experimental Procedures: Onset and steady inhibition was evaluated at a test potential of 0 mV (150 ms duration), repeated at ten-second intervals from a holding potential of −40 mV. Peak current was measured during the step to 0 mV. Peak current was monitored until a new steady state was achieved. hCav1.2 current was monitored until a new steady state was achieved and a steady state was maintained for at least 20 s before applying test article or positive control article formulations. […]
Nonlinear least squares fits were solved with the Solver add-in for Excel 2003 or later (Microsoft, Redmond, WA) and the IC50 was calculated.

T1 sequence (Q12809 whole entry): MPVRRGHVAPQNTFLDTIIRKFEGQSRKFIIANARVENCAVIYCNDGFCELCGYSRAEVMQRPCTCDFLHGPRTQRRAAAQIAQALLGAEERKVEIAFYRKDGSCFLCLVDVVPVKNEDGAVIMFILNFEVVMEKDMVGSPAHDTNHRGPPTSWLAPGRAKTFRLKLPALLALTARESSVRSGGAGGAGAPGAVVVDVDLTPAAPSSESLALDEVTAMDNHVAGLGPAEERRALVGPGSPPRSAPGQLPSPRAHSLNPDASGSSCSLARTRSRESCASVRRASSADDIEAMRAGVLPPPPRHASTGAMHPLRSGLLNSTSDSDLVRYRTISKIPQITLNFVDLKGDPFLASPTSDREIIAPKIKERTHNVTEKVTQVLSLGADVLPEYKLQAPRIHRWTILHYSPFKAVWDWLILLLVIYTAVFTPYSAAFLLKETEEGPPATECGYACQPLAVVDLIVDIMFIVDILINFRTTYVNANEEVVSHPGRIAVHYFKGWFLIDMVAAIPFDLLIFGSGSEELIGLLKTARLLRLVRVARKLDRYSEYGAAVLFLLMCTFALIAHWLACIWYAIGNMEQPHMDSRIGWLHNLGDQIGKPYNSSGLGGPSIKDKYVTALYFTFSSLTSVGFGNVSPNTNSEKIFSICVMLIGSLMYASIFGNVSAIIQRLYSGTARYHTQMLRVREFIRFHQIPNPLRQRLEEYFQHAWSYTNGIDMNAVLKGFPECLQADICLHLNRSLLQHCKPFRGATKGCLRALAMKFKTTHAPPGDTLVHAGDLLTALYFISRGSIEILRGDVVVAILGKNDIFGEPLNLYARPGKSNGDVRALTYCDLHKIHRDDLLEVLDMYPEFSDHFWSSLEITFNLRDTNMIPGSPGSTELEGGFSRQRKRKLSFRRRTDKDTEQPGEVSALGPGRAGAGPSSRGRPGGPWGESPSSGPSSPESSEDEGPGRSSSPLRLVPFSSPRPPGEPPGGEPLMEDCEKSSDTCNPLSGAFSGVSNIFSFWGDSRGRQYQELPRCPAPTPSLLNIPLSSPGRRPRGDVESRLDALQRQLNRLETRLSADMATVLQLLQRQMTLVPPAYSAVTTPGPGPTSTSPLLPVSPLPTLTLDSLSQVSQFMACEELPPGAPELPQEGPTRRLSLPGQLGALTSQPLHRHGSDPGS

SMILES: CC(C)COc1ccc(CNC(=O)N(Cc2ccc(F)cc2F)C2CCN(C)CC2)cc1 [Example 3, 1-[(2,4-difluorophenyl)methyl]-1-(1-methylpiperidin-4-yl)-3-{[4-(2-methylpropoxy)phenyl]methyl}urea]
- inhibition at 1 µM (hERG channel): 33%
- IC50 (hCav1.2/β2/α2δ channels): 1.4 µM

SMILES: CC(C)Oc1ccc(CNC(=O)N(Cc2ccc(F)cc2F)C2CCN(C)CC2)cc1 [Example 5, 1-[(2,4-difluorophenyl)methyl]-1-(1-methylpiperidin-4-yl)-3-{[4-(propan-2-yloxy)phenyl]methyl}urea]
- inhibition at 1 µM (hERG channel): 29%
- IC50 (hCav1.2/β2/α2δ channels): 11.3 µM

SMILES: CN1CCC(N(Cc2ccc(F)cc2F)C(=O)NCc2ccc(OC3CC3)cc2)CC1 [Example 17, 3-[(4-cyclopropoxyphenyl)methyl]-1-[(2,4-difluorophenyl)methyl]-1-(1-methylpiperidin-4-yl)urea]
- inhibition at 1 µM (hERG channel): 32%
- IC50 (hCav1.2/β2/α2δ channels): 3.5 µM
